Patent US20100080862A1, “COMPOSITIONS AND FOODS FOR IMPROVING LIPID METABOLISM” (Kirin Beer Kabushiki Kaisha, priority 2002, published 2010)
One block for each compound: values may come before it.

What was measured:
[1] = molecular target: T1, fused protein of PPARγ with yeast Gal4 protein (Homo sapiens, UniProt P37231); assay: PPARγ agonist screening system consisting of a fused protein, Gal4 luciferase reporter in CV-1 cells (Example 10); type: cell-based; conditions: humulone compounds at 1, 3, and 10 μM, 48 hours
T1 construct: 204a.a.-505a.a) was cloned; expressed in transfected cells; host or cells: CV-1 cells
T1 sequence (P37231 204-505): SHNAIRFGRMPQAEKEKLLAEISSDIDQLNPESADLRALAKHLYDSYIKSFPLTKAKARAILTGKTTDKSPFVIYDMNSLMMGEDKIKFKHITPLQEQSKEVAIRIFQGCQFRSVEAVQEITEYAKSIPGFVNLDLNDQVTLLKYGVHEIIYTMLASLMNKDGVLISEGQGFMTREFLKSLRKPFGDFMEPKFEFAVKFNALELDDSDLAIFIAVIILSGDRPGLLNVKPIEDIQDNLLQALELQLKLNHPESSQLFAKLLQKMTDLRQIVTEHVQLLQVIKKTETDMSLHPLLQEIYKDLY
Text: In order to construct a human PPARγ expression plasmid, a PPARγ ligand binding domain (LBD; 204a.a.-505a.a) was cloned from the human heart cDNA library (Gibco). After the sequence was confirmed, the cloned ORF was ligated to the BamHI-Kpn1 site of the expression vector pBind (Promega) to construct the expression vector pGR-Gal4-PPARγ which expresses a fused protein of PPARγ with yeast Gal4 protein. The sequences of primers used for the cloning are as follows: […]
Next, an N terminal sequence (1a.a-76a.a) of the human glucocorticoid receptor (GR) was ligated to the N-terminal of the Gal4 region of pBind so that the reading frame coincided with Gal4. The GR was cloned from the heart cDNA library (Gibco) using PCR. The sequences of primers used for the cloning are as follows: […]
As a reporter plasmid, firefly luciferase expression vector pG5luc (Promega) having 5 copies of the Gal4 binding site introduced into the promoter region was used. CV-1 cells were transfected with the pGR-Gal4-PPARγ and the pG5luc using Lipofect AMINE (Gibco). After the transfection, the medium was replaced with a medium (DMEN, Gibco) with addition of a test sample or control (pioglitazone), and cells were recovered after cultivation for 48 hours. After the cell recovery, cell lysate was prepared using a Dual-Luciferase reporter assay system (Promega) to measure firefly luciferase activity using a luminometer (Luminous CT-9000D, DIA-IATRON). Further, the protein concentration of the cell lysate was measured using a Dc Protein assay (BIO-RAD) to standardize the value of firefly luciferase activity for the protein concentration. The result was expressed as a relative value by setting the value of the negative control to be 1.

human PPARγ = assay: PPARγ agonist screening system, PPRE luciferase reporter in CV-1 cells (Example 9); type: cell-based; conditions: for PPARγ/RXR alpha activating activity compared to that with 1 μM pioglitazone: at a concentration of 10 μm; for PPARγ/RXR alpha activating activity (relative luciferase activity): concentrations of 1, 5, 10, and 50 μM, 48 hours
Text: In order to construct a human PPARγ expression plasmid, a PPARγ ORF was cloned from the human heart cDNA library (Gibco). After the sequence was confirmed, the cloned ORF was ligated to the NheI-SalI site of the expression vector pCI neo (Promega). The sequences of primers used for the cloning were as follows: […]
Next, in order to construct a reporter plasmid, oligo DNAs having 3 copies of PPRE was constructed and inserted at the KpnI-BglII site of the firefly luciferase reporter vector pGL3-promoter vector (Promega), after which the sequences were confirmed. The sequences of oligo-DNAs containing PPRE are as follows:
CV-1 cells were transfected with the above-mentioned plasmid along with the renilla luciferase reporter vector pRL-SV40 vector for compensation (Promega) using Lipofect AMINE (Gibco). The CV-1 cells used were cultured at a concentration of 5×10^4 cells/ml in 2 ml of DMEM (Gibco) supplemented with 10% fetal calf serum (Gibco) and penicillin-streptomycin (10000 units and 1 mg/ml, respectively; Gibco) on a 12-well plate at 37° C. in an atmosphere of 5% CO2 on the day before transfection. After the transfection, cells for the positive control were cultured in the abovementioned DMEM medium containing 1 μm pioglitazone (Takeda). After cultivating for 48 hours, the cells were recovered and the lysate was prepared using a Dual-Luciferase reporter assay system (Promega) to measure firefly luciferase and renilla luciferase activity using a luminometer (Luminous CT-9000D, DIA-IATRON). Relative luciferase activity was obtained by dividing the value for firefly luciferase activity by the value for renilla luciferase activity.

[2] = system: C57BL/6 mice fed high fat diet; assay: Oral glucose tolerance test in mice with high fat diet-induced insulin resistance (Example 15); type: in vivo
Procedure: C57BL/6 mice were fed the high fat diet shown in Example 8 for 12 weeks to induce insulin resistance and then orally administered with the water soluble hop extract for 10 consecutive days (100 and 330 mg/kg/day). After completion of the administration, animals were fasted for 16 hours and then subjected to an oral glucose tolerance test (OGTT). […] After completion of the administration, animals were fasted for 16 hours and then subjected to an oral glucose tolerance test (OGTT). In OGTT, after blood sampling and blood sugar measurement, 1 g/kg of aqueous glucose solution was administered (at time zero), after which blood sampling and blood sugar measurement were carried out at 15, 30, and 60 minutes and blood sugar measurement was carried out at 120 minutes. Change with time in the blood insulin level was measured using an insulin measuring kit (Morinaga Seikagaku Institute).

C57BL/6 mice (females) = assay: Improving effect of fractionated lupulone on lipid metabolism in mice (Example 14); type: in vivo
Procedure: Improving effect of a fractionated lupulone on lipid metabolism was evaluated using C57BL/6 mice (females). Namely, lupulone was purified from hop pellets (CAS pellets, a product of Saaz, Czech Republic). About 2.5 kg of hop pellets were extracted with 4 L of ethyl acetate 3 times and the extract was concentrated under the reduced pressure to obtain a dark green extract (329.17 g). A portion of the extract (262.7 g) was applied on a silica gel column for fractionation. Chromatography was carried out using a stepwise elution with a hexane-ethyl acetate mixed solution to obtain 15 fractions. The third fraction (41.8 g) was applied on a silica gel column for refractionation and a fraction eluted with a hexane:ethyl acetate (20:1) solution was recrystallized to obtain lupulone (1.88 g, white needle crystals, yield: about 0.094%). Further, 5-week-old C57BL/6NCrj female mice (8 per group) (Japan Charles River) were fed CE2 (Japan Clea) and water for 1 week ad libitum. Then, the animals were divided into 2 groups, i.e., a group fed AIN76A (described in Example 2) with addition of 0.2% cholesterol and 0.3% cellulose (referred to as “group C” hereinafter) and a group fed AIN76A with addition of 0.2% cholesterol and 0.3% lupulone (referred to as “group L” hereinafter). The diets were prepared and administered according to the methods described in Example 2. One week after feeding the test diets, the animals were dissected under non-fasting conditions.

[3] = purified isocohumulone 10 and 30 mg/kg/day oral, 10 days

PPARγ activating activity (firefly luciferase, relative to negative control) [1]: activity was confirmed
Compound: CC(C)=CCC1=C(O)C(O)(CC=C(C)C)C(=O)C(C(=O)C(C)C)=C1O (stereo not drawn) [cohumulones, cohumulone]
PPARγ/RXR alpha activating activity compared to that with 1 μM pioglitazone (human PPARγ): almost equivalent | PPARγ/RXR alpha activating activity (relative luciferase activity) (human PPARγ): exhibited the activity

PPARγ activating activity (firefly luciferase, relative to negative control) [1]: activity was confirmed
Compound: CC(C)=CCC1=C(O)[C@](O)(CC=C(C)C)C(=O)C(C(=O)CC(C)C)=C1O [humulones, humulone]
PPARγ/RXR alpha activating activity compared to that with 1 μM pioglitazone (human PPARγ): almost equivalent | PPARγ/RXR alpha activating activity (relative luciferase activity) (human PPARγ): exhibited the activity

Compound: CCC(C)C(=O)C1=C(O)C(O)(C(=O)CC=C(C)C)C(CC=C(C)C)C1=O (stereo not drawn) [isoadhumulones, isoadhumulone]
PPARγ/RXR alpha activating activity compared to that with 1 μM pioglitazone (human PPARγ): almost equivalent | PPARγ/RXR alpha activating activity (relative luciferase activity) (human PPARγ): exhibited the activity

PPARγ activating activity (firefly luciferase, relative to negative control) [1]: activity was confirmed
Compound: CC(C)=CCC(=O)C1(O)C(O)=C(C(=O)C(C)C)C(=O)C1CC=C(C)C (stereo not drawn) [isocohumulones, isocohumulone]
PPARγ/RXR alpha activating activity compared to that with 1 μM pioglitazone (human PPARγ): almost equivalent | PPARγ/RXR alpha activating activity (relative luciferase activity) (human PPARγ): exhibited the activity | insulin resistance (blood insulin concentration upon OGTT) ([2]; oral, 10 consecutive days, water soluble extract 100 and 330 mg/kg/day, purified isocohumulone 10 and 30 mg/kg/day): amelioration | glucose tolerance (blood sugar level upon OGTT) ([2]; oral, 10 consecutive days, water soluble extract 100 and 330 mg/kg/day, purified isocohumulone 10 and 30 mg/kg/day, 1 g/kg glucose after 16 h fasting): Amelioration | insulin concentration before the administration (of glucose) [2, 3]: significantly decreased | insulin concentration thereafter (after glucose administration) [2, 3]: tended to keep decreasing

PPARγ activating activity (firefly luciferase, relative to negative control) [1]: activity was confirmed
Compound: CC(C)=CCC(=O)C1(O)C(O)=C(C(=O)CC(C)C)C(=O)C1CC=C(C)C (stereo not drawn) [isohumulones, isohumulone]
PPARγ/RXR alpha activating activity compared to that with 1 μM pioglitazone (human PPARγ): almost equivalent | PPARγ/RXR alpha activating activity (relative luciferase activity) (human PPARγ): exhibited the activity

Compound: CC(C)=CCC1=C(O)C(CC=C(C)C)(CC=C(C)C)C(=O)C(C(=O)CC(C)C)=C1O [lupulone]
cholesterol content per g of liver (C57BL/6 mice (females); group L 0.3% lupulone in AIN76A + 0.2% cholesterol, one week, non-fasting): significant decrease | body weight (C57BL/6 mice (females); group L 0.3% lupulone in diet): significant decrease | body weight gain per calorie intake (C57BL/6 mice (females); group L 0.3% lupulone in diet): significantly reduced
